How the values were obtained:
[1] = tested on: E. coli; assay: Full AET challenge test; conditions: original spike 10^5-10^6 CFU/ml, after 28 days
[2] = tested on: M. luteus; assay: Full AET challenge test; conditions: original spike 10^5-10^6 CFU/ml, after 28 days
[3] = tested on: C. albicans; assay: Full AET challenge test; conditions: original spike 10^5-10^6 CFU/ml, after 28 days
[4] = tested on: S. aureus; assay: Full AET challenge test; conditions: original spike 10^5-10^6 CFU/ml, after 28 days
[5] = tested on: A. brasiliensis; assay: Full AET challenge test; conditions: original spike 10^5-10^6 CFU/ml, 28 days at room temperature
[6] = tested on: P. aeruginosa; assay: Full AET challenge test; conditions: original spike 10^5-10^6 CFU/ml, after 28 days
[7] = tested on: S. haemolyticus; assay: Microbial challenge test (Example 1); conditions: original spike 10^5-10^6 CFU/ml

Measured: Effect on the original spike (in words)

CN[C@]1(c2ccccc2Cl)CCCCC1=O.Cl [S-ketamine hydrochloride, (S)-2-(2-chlorophenyl)-2-(methylamino)cyclohexanone hydrochloride]
some inhibitory activity: [5]
strong antimicrobial properties: all other assays above
